Measured values published in patent US11840517B2, “Lappaconitine derivative with analgesic activity, and preparation and application thereof” (priority 2021, dated 2023).
Where two headings read alike, the source gives them in different places.

Legend:
[1] = Median lethal dose (LD50) determination; type: in vivo, Kunming mice; details: both sexes, Kunming, mouse, in vivo, sc; subcutaneous, survival within 24 h, Probit regression
Protocol: (§1) The sample to be tested was dissolved with 0.1 mol/L HCl according to the amount of the substance ratio of 1:1, and diluted with physiological saline according to the required concentration. 10 mice in each group were randomly selected, half of which are male and half of which were female, and were placed in independent cages. Each mouse was injected subcutaneously with different sample solutions to be tested according to a dose of 0.1 mL/10 g body weight. In the preliminary toxicity experiment, the measured concentration was 100 mg/kg, and then based on the survival rate of the experimental animals in the preliminary experiment, the sample to be tested was set to at least 5 groups with different concentration dose according to the proportional series. The survival rate of mice within 24 h was recorded. The obtained dose-survival rate data was input into the SPSS software (version 17.2), and the LD50 of the sample was calculated according to the Probit regression method.

Kunming mice [2] = experiment: Analgesic activity by acetic acid-induced writhing method; type: in vivo; details: for analgesic activity (in words, Table 1): comment on Table 1
Protocol: The experimental animals were Kunming mice (male:female=1:1), weighed 22±2 g, which were provided by Chengdu dossy experimental animals Co., ltd., China. The mice were kept in the animal room of the School of Life Science and Engineering, Southwest Jiaotong University, where the animal room was set at a temperature of 23±2° C., a humidity of 55±5% and a photoperiod of 16:8 h (L:D). Before the experiment, the mice were freely fed for 2-3 days with water and feed to adapt to the new environment. Then, the mice were treated by water fasting for 12 h. 10 animals were allocated to each group to ensure that there are at least 6 sets of valid data in each group. The animal experiments were carried out in strict accordance with the national regulations on the management of experimental animals.
The compounds prepared in the examples provided herein and the positive control lappaconitine were all dissolved with 0.1 mol/L HCl according to the amount of the substance ratio of 1:1, and then diluted with physiological saline to a concentration to be determined. The samples to be tested were the compounds prepared the examples provided herein; the positive control was lappaconitine; and the blank control was physiological saline containing 0.1 mol/L HCl.
The animals in the control groups were subjected to the same treatment as those in the experimental group except that the samples to be test were replaced with physiological saline.
(§2) 10 mice were randomly selected, male:female=1:1, were placed in independent cages. Each mouse was injected subcutaneously with the sample solution mentioned above at a dose of 0.1 mL/10 g body weight. After 15 min, a 0.7% acetic acid solution was intraperitoneally injected. The number of writhing reactions in each mouse within 15 minutes was recorded. The group that the mice were injected with physiological saline subcutaneously was the blank group; the group that the mice were injected with the sample to be tested was the experimental group; and the group that the mice were injected with lappaconitine was the positive group. The analgesic activity was represented by a percentage of the reduced number of writhing compared to the blank group (writhing inhibition rate), which were specifically as follows: writhing inhibition rate (analgesic activity)=(average number of writhing times in the blank group-average number of writhing times in the experimental group)/average number of writhing times in the blank group×100%.

Kunming mice [3] = experiment: Median effective dose (ED50) determination, acetic acid-induced writhing; type: in vivo; details: for ED50: subcutaneous, writhing inhibition, Probit regression; for analgesic activity / ED50 compared with lappaconitine (in words): comment on Table 2
Protocol: as §2
The sample to be tested was dissolved with 0.1 mol/L HCl according to the amount of the substance ratio of 1:1, and diluted with physiological saline according to the proportional series to obtain at least 5 groups with different dose concentrations. The writhing inhibition rate of each dose group was tested according to the acetic acid-induced writhing method mentioned above. The obtained does-writhing inhibition data was entered into the statistical product and service solutions (SPSS) software (version 17.2), and the ED50 of the sample to be tested was calculated through the Probit regression method.

Kunming mice [4] = experiment: Median lethal dose (LD50) determination; type: in vivo
Protocol: as §1

[5] = Mus musculus, sc, read-out: Analgesia rate ± SEM (%)
[6] = Mus musculus, sc, read-out: ED50
[7] = Mus musculus, sc, Dosing concentration 10 mg/kg, subcutaneous, 15 min before i.p. 0.7% acetic acid, writhing inhibition vs blank group, read-out: Analgesia rate ± SEM (%)

Row | Structure (SMILES) | LD50 [1] | inhibition in vivo at 10 mg/kg (Kunming mice [2]; [5]) | analgesic activity (in words, Table 1) (Kunming mice [2]) | ED50 (Kunming mice [3]; [6]) | analgesic activity / ED50 compared with lappaconitine (in words) (Kunming mice [3]) | inhibition in vivo at 10 mg/kg (Kunming mice [2]; [7]) | further results
1 | CCOc1ccc(C(=O)Nc2ccccc2C(=O)O[C@@]23CC[C@H](OC)C45C2CC([C@H]4N(CC)C3)[C@@]2(O)C[C@H](OC)[C@H]3CC5[C@]2(O)[C@H]3OC)cc1 (stereo partly shown) [Compound 31] | 315 mg/kg | 62.8 ± 5.41% | significant activity | 6.6 mg/kg | same order of magnitude as that of lappaconitine |  | 
2 | CCN1C[C@]2(OC(=O)c3ccccc3NS(=O)(=O)c3ccccc3)CC[C@H](OC)C34C2CC([C@@H]13)[C@@]1(O)C[C@H](OC)[C@H]2CC4[C@]1(O)[C@H]2OC (stereo partly shown) [Compound 1] | > 600 mg/kg | 84.3 ± 3.05% | significant activity | 6.1 mg/kg | same order of magnitude as that of lappaconitine |  | 
3 | CCN1C[C@]2(OC(=O)c3ccccc3NS(=O)(=O)c3ccccn3)CC[C@H](OC)C34C2CC([C@@H]13)[C@@]1(O)C[C@H](OC)[C@H]2CC4[C@]1(O)[C@H]2OC (stereo partly shown) [Compound 3] | > 400 mg/kg | 71.2 ± 2.72% | significant activity | 4.7 mg/kg | same order of magnitude as that of lappaconitine |  | 
4 | CCN1C[C@]2(OC(=O)c3ccccc3NC(C)=O)CC[C@H](OC)[C@@]34[C@@H]2C[C@@H]([C@@H]13)[C@@]1(O)C[C@H](OC)[C@H]2C[C@@H]4[C@]1(O)[C@H]2OC [Lappaconitine] |  |  |  |  |  |  | LD50 (Kunming mice [4]; subcutaneous, survival within 24 h, Probit regression): 11.7 mg/kg; Analgesia rate ± SEM (%) (Kunming mice [2]; Dosing concentration 3.5 mg/kg, subcutaneous, 15 min before i.p. 0.7% acetic acid, writhing inhibition vs blank group): 56.57 ± 6.57 %; experimental animal death from poisoning (Kunming mice [2]; dosing concentration of 10 mg/kg): more than half of the experimental animal death from poisoning; ED50 (Kunming mice [3]): 3.5 mg/kg
5 | CCN1C[C@]2(OC(=O)c3ccccc3NS(=O)(=O)c3ccccc3OC)CC[C@H](OC)C34C2CC([C@@H]13)[C@@]1(O)C[C@H](OC)[C@H]2CC4[C@]1(O)[C@H]2OC (stereo partly shown) [Compound 2] | 300 mg/kg | 71.2 ± 3.8% | significant activity | 5.5 mg/kg | same order of magnitude as that of lappaconitine |  | 
6 | CCN1C[C@]2(OC(=O)c3ccccc3NC(=O)OC)CC[C@H](OC)C34C2CC([C@@H]13)[C@@]1(O)C[C@H](OC)[C@H]2CC4[C@]1(O)[C@H]2OC (stereo partly shown) [Compound 4] | 10 mg/kg | 71.1 ± 5.97% | significant activity | 1.2 mg/kg | doubled compared with lappaconitine |  | toxicity compared with lappaconitine (in words) (Kunming mice [4]; comment on Table 2): did not increase significantly
7 | CCN1C[C@]2(OC(=O)c3ccccc3NC(=O)c3ccc(OC)cc3)CC[C@H](OC)C34C2CC([C@@H]13)[C@@]1(O)C[C@H](OC)[C@H]2CC4[C@]1(O)[C@H]2OC (stereo partly shown) [Compound 32] | 296 mg/kg | 62.8 ± 5.77% | significant activity | 4.4 mg/kg | same order of magnitude as that of lappaconitine |  | 
8 | CCN1C[C@]2(OC(=O)c3ccccc3NC(=O)c3ccc(OC(C)C)cc3)CC[C@H](OC)[C@]34C1[C@H](CC23)[C@@]1(O)C[C@H](OC)[C@H]2CC4[C@]1(O)[C@H]2OC (stereo partly shown) [Compound 59] | 196 mg/kg | 61.1 ± 5.52% | significant activity | 8.1 mg/kg | same order of magnitude as that of lappaconitine |  | 
9 | CCN1C[C@]2(OC(=O)c3ccccc3NC(=O)c3ccc(N(C)C)cc3)CC[C@H](OC)C34C2CC([C@@H]13)[C@@]1(O)C[C@H](OC)[C@H]2CC4[C@]1(O)[C@H]2OC (stereo partly shown) [Compound 5] | 300 mg/kg | 62.1 ± 5.02% | significant activity | 6.1 mg/kg | same order of magnitude as that of lappaconitine |  | 
10 | CCN(CC)c1ccc(C(=O)Nc2ccccc2C(=O)O[C@@]23CC[C@H](OC)C45C2CC([C@H]4N(CC)C3)[C@@]2(O)C[C@H](OC)[C@H]3CC5[C@]2(O)[C@H]3OC)cc1 (stereo partly shown) [Compound 30] | 276 mg/kg | 63.9 ± 5.09% | significant activity | 7.5 mg/kg | same order of magnitude as that of lappaconitine |  | 
11 | CCN1C[C@]2(OC(=O)c3ccccc3NC(=O)C3CC3)CC[C@H](OC)C3C2C[C@@H]([C@@H]1C)[C@@]1(O)CC(OC)[C@H]2CC3[C@]1(O)[C@H]2OC (stereo partly shown) [Compound 39] |  |  |  |  |  |  | inhibition in vivo at 5 mg/kg (Kunming mice [2]; Mus musculus, sc, Dosing concentration 5 mg/kg, subcutaneous, 15 min before i.p. 0.7% acetic acid, writhing inhibition vs blank group, read-out: Analgesia rate ± SEM (%)): 33.5 ± 7.27%
12 | CCN1C[C@]2(OC(=O)c3ccccc3NS(=O)(=O)c3cccc4ccccc34)CC[C@H](OC)[C@@]34C2CC([C@@H]13)[C@@]1(O)C[C@H](OC)[C@H]2CC4[C@]1(O)[C@H]2OC (stereo partly shown) [Compound 8] |  |  |  |  |  | 49.2 ± 5% | 
13 | CCN1C[C@]2(OC(=O)c3ccccc3NC(=O)c3ccc(Cl)s3)CC[C@H](OC)C3C2C[C@@H]([C@@H]1C)[C@@]1(O)CC(OC)[C@H]2CC3[C@]1(O)[C@H]2OC (stereo partly shown) [Compound 45] |  |  |  |  |  | 27.8 ± 5.83% | 
14 | CCN1C[C@]2(OC(=O)c3ccccc3NS(=O)(=O)c3ccc(C)cc3)CC[C@H](OC)[C@@]34C2CC([C@@H]13)[C@@]1(O)C[C@H](OC)[C@H]2CC4[C@]1(O)[C@H]2OC (stereo partly shown) [Compound 15] |  |  |  |  |  |  | inhibition in vivo at 3.5 mg/kg (Kunming mice [2]; Mus musculus, sc, Dosing concentration 3.5 mg/kg, subcutaneous, 15 min before i.p. 0.7% acetic acid, writhing inhibition vs blank group, read-out: Analgesia rate ± SEM (%)): 27.7 ± 12.9%
15 | CCN1C[C@]2(OC(=O)c3ccccc3NC(=O)C3CCOC3)CC[C@H](OC)C3C2C[C@@H]([C@@H]1C)[C@@]1(O)CC(OC)[C@H]2CC3[C@]1(O)[C@H]2OC (stereo partly shown) [Compound 38] |  |  |  |  |  | 34 ± 8.92% | 
16 | CCN1C[C@]2(OC(=O)c3ccccc3NC(=O)C3CCCC3)CC[C@H](OC)C34C2CC([C@@H]13)[C@@]1(O)C[C@H](OC)[C@H]2CC4[C@]1(O)[C@H]2OC (stereo partly shown) [Compound 33] |  |  |  |  |  | 56.9 ± 3.82% | 
17 | CCN1C[C@]2(OC(=O)c3ccccc3NC(=O)c3ccc(C(=O)OC)cc3)CC[C@H](OC)C3C2C[C@@H]([C@@H]1C)[C@@]1(O)CC(OC)[C@H]2CC3[C@]1(O)[C@H]2OC (stereo partly shown) [Compound 36] |  |  |  |  |  | 36.4 ± 9.54% | 
18 | CCCC(C)C(=O)Nc1ccccc1C(=O)O[C@@]12CC[C@H](OC)C3C1C[C@@H]([C@H](C)N(CC)C2)[C@@]1(O)CC(OC)[C@H]2CC3[C@]1(O)[C@H]2OC (stereo partly shown) [Compound 42] |  |  |  |  |  | 31.3 ± 10.7% | 
